Data: patent publication US20220213144A1, “HALOGENATED ANTIMICROBIAL PEPTOIDS” (priority 2019, published 2022)
In brackets after ≈: the same amount, converted by molar mass. Like-named read-outs stand apart in the source and are kept apart here. Square brackets hold non-standard residues; d marks the D form. Peptide text beside a SMILES is read from it. N(4-Br-benzyl)Gly = O=C(O)CNCc1ccc(Br)cc1; NBzl(4-I)Gly = O=C(O)CNCc1ccc(I)cc1; Nspe = C[C@H](NCC(=O)O)c1ccccc1; Nphe = O=C(O)CNCc1ccccc1; Nlys = NCCCCNCC(=O)O

Legend:
[1] = tested on: methicillin-restant S. epidermidis ATCC 51625; format: cell-based, Staphylococcus epidermidis; settings: for MIC against MRSE: text b77, 6-mers, strain not named, values fit ATCC 51625; for MIC MRSE^d: S. epidermidis ATCC 51625
Protocol: (§1) Bacterial growth inhibition was determined by using broth microdilution according to the Clinical Laboratory Standards Institute. The antibacterial activity of peptoids was tested against S. aureus ATCC 25923, ATCC29213, and methicillin resistant S. aureus USA 300, methicillin resistant S. epidermidis ATCC 51625, a biofilm producing methicillin resistant S. epidermidis […], P. aeruginosa Pa01 (H103), and E. coli ATCC 25922. Bacteria, grown on agar plates for 18 hours at 37° C., were diluted to ˜1×10^8 CFU/mL in Mueller-Hinton Broth II (MHB II). Twofold serial dilutions of peptoids in MHB II were inoculated with the bacteria to achieve a final concentration of 5×10^5 CFU/mL in polypropylene 96 U-well microtiter plates (Corning™ 3897; ThermoFisher Scientific, Roskilde), followed by incubation at 37° C. in ambient air for 18 hours. The MIC values were determined as the lowest concentration showing no visible bacterial growth. Experiments were performed twice (in technical triplicates) on different days.

[2] = tested on: seven bacterial strains; experiment: MIC by broth microdilution, whole panel of bacterial strains; format: cell-based; settings: in words
Protocol: All 36 peptoids were tested against seven bacterial strains. These included five Gram-positive strains (Staphylococcus aureus ATCC 25923 and ATCC 29213, methicillin-resistant Staphylococcus aureus USA 300, methicillin-restant Staphylococcus epidermidis ET-024 and ATCC 51625) and two Gram-negative strains (Escherichia coli ATCC 25922 and Pseudomonas aeruginosa PA01) (see TABLE 1).
as §1

[3] = tested on: S. aureus ATCC 25923; format: cell-based, Staphylococcus aureus; settings: for increase in activity against S. aureus: compared to the unsubstituted control peptoid of same length; for MIC against S. aureus: strain not named; for MIC SA^a: S. aureus ATCC 25923
Protocol: as §1

[4] = Small angle X-ray scattering, critical aggregation concentration from fit; format: physicochemical; settings: for critical aggregation concentration (CAC): SAXS fit analysis, bundle model
Protocol: SAXS experiments of the 10-mer peptoids were performed on the automated BM29 bioSAXS beamline at the European Synchrotron Radiation Facility (ESRF) in Grenoble, France. The data was obtained using an energy of 12.5 keV and a detector distance of 2.87 m, covering a q range (q=4π sin(θ/2)/λ), where θ is the scattering angle and λ is the X-ray wavelength) of about 0.0047 Å-1 to 0.5 Å-1. The data set was calibrated to an absolute intensity scale using water as a primary standard. Samples (40 μL) were run through a capillary using the flow mode of the automated sample changer. SAXS data was collected in ten successive frames of 0.5 s each to monitor radiation damage, and the data reduction was done using the standard tool at BM29.
The SAXS experiments on the fully iodinated 6-, 8-, and 12-mers to determine the CAC of the compounds were performed using a Bruker NANOSTAR equipped with a microfocus X-ray source (IμS Cu, Incoatec, Germany) and a VANTEC-2000 detector. Raw scattering data was calibrated to absolute intensity scale using water as a primary standard and radially averaged in order to obtain the 1D scattered intensity profile as a function of the scattering vector, with a wavelength of 1.54 Å.
where fagg is the fraction of peptoid chains aggregated in bundles, allowing for calculation of a CAC from ϕCAC=ϕ−(fagg*ϕ).

[5] = tested on: methicillin-restant S. epidermidis ET-024; format: cell-based, Staphylococcus epidermidis; settings: for MIC against MRSE: strain not named; for increase in activity against MRSE: 8-mer and 10-mer, compared to unsubstituted controls 10 and 19; for MIC MRSE^c: S. epidermidis ET-024
Protocol: as §1

[6] = tested on: methicillin-resistant S. aureus USA 300; format: cell-based, Staphylococcus aureus
Protocol: as §1

[7] = tested on: P. aeruginosa PA01; format: cell-based, Pseudomonas aeruginosa; settings: P. aeruginosa PA01 H103
Protocol: as §1

[8] = Cell viability assay (MTS/PMS), HaCaT cell line; format: cell-based; settings: human, text b151, read-out: IC50 (cytotoxicity, HaCaT)
Protocol: An immortalized human keratinocytes (HaCaT) cell line (Gift from David Gram Naym at Bispebjerg Hospital) was cultured to ˜90% confluence after 21-25 h of growth under standard conditions (5% CO2/95% 02 at 37° C.). Cells were cultured in Dulbecco's Modified Eagle's Medium supplemented with 10% (v/v) fetal bovine serum (FBS). All culture media were supplemented with penicillin (100 IU/mL) and streptomycin (100 μg/mL). All cell media and supplements were obtained from Sigma-Aldrich (St. Louis, Mo., United States). The 96-well plates were obtained from Corning Costar (Sigma-Aldrich, Brondby, Denmark).
Cell viability assessment was performed on cell monolayers grown to ˜90% confluence in 96-well plates using the MTS/PMS assay as previously described. Briefly, the adhered cells were washed with 37° C. PBS solution (ThermoFisher Scientific, Roskilde) and exposed for 1 h at 37° C. to 100 μL of peptoid dissolved in the medium also used for culturing of the cell line (at concentrations in the range 0-1000 μg/mL). The cells were then washed twice with 37° C. PBS. […] A plate reader (SpectraMax i3X; Molecular devices, San Jose, Calif.) was used to measure the absorbance at 492 nm. The relative viability was calculated by using 0.2% (w/v) sodium dodecyl sulfate (SDS) as the positive control, while cells exposed to medium without test compound were used as the negative control. […]

[9] = in words; cited from earlier work
[10] = tested on: E. coli ATCC 25922; format: cell-based, Escherichia coli
Protocol: as §1

[11] = intraperitoneal; Czyzewski et al. 2016; cited from earlier work
[12] = Table 3, fully iodinated peptoids, bundle model fit
[13] = 8-mers and 10-mers, values fit ET-024
[14] = Table 2, 10-mers, SAXS at ESRF, model fit

Compound: NCCCCNCC(=O)N(CC(=O)N(CCCCN)CC(=O)N(CC(=O)N(CCCCN)CC(=O)N(CC(N)=O)Cc1ccccc1)Cc1ccccc1)Cc1ccccc1 [Compound 1] (H-[Nlys][Nphe][Nlys][Nphe][Nlys][Nphe]-NH2; N-terminus assumed)
- MIC against MRSE [1]: 512 µg/mL (≈ 607 µM)
- potency against the selected bacterial strains [2]: inactive

Compound: NCCCCNCC(=O)N(CC(=O)N(CCCCN)CC(=O)N(CC(=O)N(CCCCN)CC(=O)N(CC(N)=O)Cc1ccc(I)cc1)Cc1ccc(I)cc1)Cc1ccc(I)cc1 [Compound 5] (H-[Nlys][NBzl(4-I)Gly][Nlys][NBzl(4-I)Gly][Nlys][NBzl(4-I)Gly]-NH2; N-terminus assumed)
- increase in activity against S. aureus [3]: more than 64 fold
- MIC against S. aureus [3]: 8 µg/mL (≈ 6.55 µM)
- increase in activity against MRSE ([1]; 6-mer, compared to unsubstituted control 1): 256 fold
- MIC against MRSE [1]: 2 µg/mL (≈ 1.64 µM)
- critical aggregation concentration (CAC) [4]: 2.8 mg/mL
- CAC [4, 12]: 2.8 mg/mL

Compound: NCCCCNCC(=O)N(CC(=O)N(CCCCN)CC(=O)N(CC(=O)N(CCCCN)CC(=O)N(CC(=O)N(CCCCN)CC(=O)N(CC(N)=O)Cc1ccccc1)Cc1ccccc1)Cc1ccccc1)Cc1ccccc1 [Compound 10] (H-[Nlys][Nphe][Nlys][Nphe][Nlys][Nphe][Nlys][Nphe]-NH2; N-terminus assumed)
- MIC against MRSE [5, 13]: 256 µg/mL (≈ 229 µM)
- potency against the selected bacterial strains [2]: inactive

Compound: NCCCCNCC(=O)N(CC(=O)N(CCCCN)CC(=O)N(CC(=O)N(CCCCN)CC(=O)N(CC(=O)N(CCCCN)CC(=O)N(CC(N)=O)Cc1ccc(I)cc1)Cc1ccc(I)cc1)Cc1ccc(I)cc1)Cc1ccc(I)cc1 [Compound 14] (H-[Nlys][NBzl(4-I)Gly][Nlys][NBzl(4-I)Gly][Nlys][NBzl(4-I)Gly][Nlys][NBzl(4-I)Gly]-NH2; N-terminus assumed)
- increase in activity against MRSE [5]: 128 fold
- MIC against MRSE [5]: 2 µg/mL (≈ 1.23 µM)
- critical aggregation concentration (CAC) [4]: 1.4 mg/mL
- CAC [4, 12]: 1.4 mg/mL

Compound: NCCCCNCC(=O)N(CC(=O)N(CCCCN)CC(=O)N(CC(=O)N(CCCCN)CC(=O)N(CC(=O)N(CCCCN)CC(=O)N(CC(=O)N(CCCCN)CC(=O)N(CC(N)=O)Cc1ccccc1)Cc1ccccc1)Cc1ccccc1)Cc1ccccc1)Cc1ccccc1 [Compound 19] (H-[Nlys][Nphe][Nlys][Nphe][Nlys][Nphe][Nlys][Nphe][Nlys][Nphe]-NH2; N-terminus assumed)
- MIC against MRSE [5, 13]: 128 µg/mL (≈ 91.8 µM)
- CAC [4, 14]: >5 mg/mL
- potency against the selected bacterial strains [2]: inactive

Compound: NCCCCNCC(=O)N(CC(=O)N(CCCCN)CC(=O)N(CC(=O)N(CCCCN)CC(=O)N(CC(=O)N(CCCCN)CC(=O)N(CC(=O)N(CCCCN)CC(=O)N(CC(N)=O)Cc1ccc(Br)cc1)Cc1ccc(Br)cc1)Cc1ccc(Br)cc1)Cc1ccc(Br)cc1)Cc1ccc(Br)cc1 [Compound 22] (H-[Nlys][N(4-Br-benzyl)Gly][Nlys][N(4-Br-benzyl)Gly][Nlys][N(4-Br-benzyl)Gly][Nlys][N(4-Br-benzyl)Gly][Nlys][N(4-Br-benzyl)Gly]-NH2; N-terminus assumed)
- increase in activity against S. aureus [3]: > 256 fold
- MIC against S. aureus [3]: 2 µg/mL (≈ 1.12 µM)
- increase in activity against MRSE [5]: 128 fold
- MIC against MRSE [5, 13]: 1 µg/mL (≈ 0.559 µM)
- critical aggregation concentration (CAC) [4]: 2.3 mg/mL
- CAC [4, 14]: 2.3 mg/mL

Compound: NCCCCNCC(=O)N(CC(=O)N(CCCCN)CC(=O)N(CC(=O)N(CCCCN)CC(=O)N(CC(=O)N(CCCCN)CC(=O)N(CC(=O)N(CCCCN)CC(=O)N(CC(=O)N(CCCCN)CC(=O)N(CC(N)=O)Cc1ccccc1)Cc1ccccc1)Cc1ccccc1)Cc1ccccc1)Cc1ccccc1)Cc1ccccc1 [Compound 28] (H-[Nlys][Nphe][Nlys][Nphe][Nlys][Nphe][Nlys][Nphe][Nlys][Nphe][Nlys][Nphe]-NH2; N-terminus assumed)
- potency against the selected bacterial strains [2]: inactive

Compound: C[C@@H](c1ccccc1)N(CC(N)=O)C(=O)CN(C(=O)CN(CCCCN)C(=O)CN(C(=O)CN(C(=O)CN(CCCCN)C(=O)CN(C(=O)CN(C(=O)CN(CCCCN)C(=O)CN(C(=O)CN(C(=O)CNCCCCN)[C@@H](C)c1ccccc1)[C@@H](C)c1ccccc1)[C@@H](C)c1ccccc1)[C@@H](C)c1ccccc1)[C@@H](C)c1ccccc1)[C@@H](C)c1ccccc1)[C@@H](C)c1ccccc1 [Peptoid 1, H-(NLys-Nspe-Nspe)4-NH2] (H-[Nlys][Nspe][Nspe][Nlys][Nspe][Nspe][Nlys][Nspe][Nspe][Nlys][Nspe][Nspe]-NH2)
- MIC MRSA^b ([6]; Table 4): 8 µg/mL (≈ 4.4 µM)
- MIC MRSA^b ([6]; Table 5): 8 µg/mL (≈ 4.4 µM)
- MIC SA^a ([3]; Table 4): 8 µg/mL (≈ 4.4 µM)
- MIC SA^a ([3]; Table 5): 8 µg/mL (≈ 4.4 µM)
- MIC PA^f ([7]; Table 4): 16 µg/mL (≈ 8.79 µM)
- MIC PA^f ([7]; Table 5): 16 µg/mL (≈ 8.79 µM)
- IC50 at 1 h [8]: 35 µg/mL (≈ 19.2 µM)
- cytotoxicity in vitro [9]: relatively high cytotoxicity
- MIC EC^e ([10]; Table 4): 8 µg/mL (≈ 4.4 µM)
- MIC EC^e ([10]; Table 5): 8 µg/mL (≈ 4.4 µM)
- MIC MRSE^d ([1]; Table 4): 8 µg/mL (≈ 4.4 µM)
- MIC MRSE^d ([1]; Table 5): 8 µg/mL (≈ 4.4 µM)
- MIC MRSE^c ([5]; Table 4): 4 µg/mL (≈ 2.2 µM)
- MIC MRSE^c ([5]; Table 5): 4 µg/mL (≈ 2.2 µM)
- tolerability intraperitoneally in vivo [11]: reasonably well tolerated
